Experimental data from PubChem BioAssay AID1963854 (Molecular Pharmacology Branch, DTP, NCI, 2024).
Values joined by “and” are separate entries in the source; they are usually repeats but may differ in a detail not shown here. Equal values may be shown once.

System: 186277-243-T-J2-PDC complex spheroid viability
Test: Anticancer human tumor 186277-243-T-J2-PDC patient-derived colon adenocarcinoma cell line growth inhibition [POLQ]
Conditions: for viability, T/C: stronger effect = lower value
Description: Multicellular complex tumor spheroid response to Polymerase (POL) inhibitors (novobiocin, ART-558, RP6685) in combination with a variety of drugs and investigational agents in selected tumor cell lines
The POL inhibitors (novobiocin, ART-558, and RP6685) were evaluated both individually and in combination with standard of care and investigational anticancer small molecules within a complex spheroid model of solid tumors. . Complex spheroids include a stromal component modeled by human endothelial cells (HUVEC) and fibroblasts modeled by human mesenchymal stem cells (MSCs). The concentration ranges selected for each drug and investigational agent were based upon clinically achievable concentrations if the clinical Cmax of the agent was known.
Compounds. The drugs and investigational agents: novobiocin (NSC847541), ART-558 (NSC835418), RP-6685 (NSC848927), peposertib (NSC802822), ceralasertib (NSC780249), elimusertib (NSC800525), camonsertib (NSC841442), AZD-1390 (NSC803789), olaparib (NSC753686), talazoparib (NSC767125), rucaparib (NSC756644), sotorasib (NSC818433), MRTX-1133 (NSC836407), SN-38 (NSC673596), topotecan (NSC609699), epotoside (NSC141540), doxorubicin (NSC123127), gemcitabine (NSC613327), 5-fluorouracil (NSC19893), paclitaxel (NSC125973), vemurafenib (NSC761431), MSA-2 (NSC828583), SN-011 (NSC837082), adavosertib (NSC754352), prexasertib (NSC758257), carboplatin (NSC241240) and oxaliplatin (NSC266046), were obtained from the National Cancer Institute (NCI) Developmental Therapeutics Program Chemical Repository (21). The FDA-approved anticancer drug set is available from the Developmental Therapeutics Program at https://dtp.cancer.gov/organization/dscb/obtaining/. […] The stock solutions were prepared in dimethyl sulfoxide (DMSO, Sigma-Aldrich, St. Louis, MO, cat. D2650), except for the platinum compounds which were prepared in saline (Quality Biological, Gaithersburg, MD, cat. 114-055-101), at 800-fold the tested concentration and stored at -70 degrees C prior to their use. All drugs and investigational agents were tested over a range starting from a high concentration at or near the clinical Cmax and decreasing in half-log increments. If the clinical Cmax for an agent had not been determined, the highest concentration tested was 10 microM, except for SN-38, which was tested at a high concentration of 1 microM.
Cell Culture. All cells were maintained in an incubator at 37 degrees C and 5% CO2 with 95% humidity. The PDC lines were cultured according to standard operating procedures established by the NCI PDMR (https://pdmr.cancer.gov). Table 3 of the manuscript, lists the cell lines along with the number of the three cell types plated to form the mct-spheroids and media for tumor cell growth. After thawing, all PDC lines, except 997537-175-T-J1-PDC and 415267-285-R-J2-PDC, were cultured in Matrigel-coated flasks prepared with a working solution of 1X Ham's F-12 nutrient mix, without supplementation (Thermo Fisher Scientific, cat. 11765054), 100 U/mL penicillin-streptomycin (Thermo Fisher Scientific, cat. 15140122), and 2.5% Matrigel (Corning Inc., Corning, NY, cat. 354248) for the first three passages. The two PDC lines 997537-175-T-J1-PDC and 415267-285-R-J2-PDC were cultured on uncoated flasks. The 857933-349-R-J2-PDC line was cultured in 6C/Colon 1B media containing advanced DMEM/F-12 (Thermo Fisher Scientific, cat. 12634028), 10 mM HEPES (Thermo Fisher Scientific, cat. 15630080), 1X GlutaMAX supplement (Thermo Fisher Scientific, cat. 35050061), 0.1 mg/mL primocin (InvivoGen, San Diego, CA, cat. ant-pm-2), 10% defined fetal bovine serum, heat inactivated (HyClone Laboratories Inc., Logan, UT, cat. SH30070.03HI), 50% L-WRN conditioned media (ATCC, cat. CRL-3276), 1.25 mM N-Acetyl-L-cysteine (Sigma-Aldrich, cat. A9165), 10 mM nicotinamide (Sigma-Aldrich, cat. N0636), 1X B-27 supplement (Thermo Fisher Scientific, cat. 17504044), 1X N-2 supplement (Thermo Fisher Scientific, cat. […]
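Further: spheroids exposed to compounds for seven days.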
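Wherever viability, T/C is given: 100% = DMSO vehicle control viability.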

O=c1[nH]cc(F)c(=O)[nH]1
viability, T/C (compound 0.0316 µM): 88.9% and 104% and 92.7%
viability, T/C (compound 0.1 µM): 89.7% and 103% and 117%
viability, T/C (compound 0.316 µM): 97.9% and 120% and 108%
viability, T/C (compound 1 µM): 98% and 95% and 112%
viability, T/C (compound 3.16 µM): 77% and 103% and 69.6%
viability, T/C (compound 10 µM): 48.4% and 63.8% and 49.9%
IC50 (curve of compound): 9.37 µM and > 10 µM

O=C(c1cc(Cc2n[nH]c(=O)c3ccccc23)ccc1F)N1CCN(C(=O)C2CC2)CC1
viability, T/C (compound 0.0316 µM): 92.4% and 106% and 120%
viability, T/C (compound 0.1 µM): 98.8% and 100% and 84.5%
viability, T/C (compound 0.316 µM): 103% and 102% and 101%
viability, T/C (compound 1 µM): 107% and 106% and 104%
viability, T/C (compound 3.16 µM): 110% and 111% and 128%
viability, T/C (compound 10 µM): 79.3% and 62% and 111%
IC50 (curve of compound): > 10 µM

Nc1ccc(C#CCN(C(=O)Cc2ncc(C(F)(F)F)cc2C(F)(F)F)c2ccc(F)cc2)nn1
viability, T/C (compound 0.0316 µM): 103% [middle of 13 runs]
viability, T/C (compound 0.1 µM): 102% [middle of 13 runs]
viability, T/C (compound 0.316 µM): 98.7% [middle of 13 runs]
viability, T/C (compound 1 µM): 101% [middle of 13 runs]
viability, T/C (compound 3.16 µM): 94.9% [middle of 13 runs]
IC50 (compound alone, run of 11/06/2023): > 10 µM

COc1ccc([C@@H](O)c2cc(-c3ncnc4cc(N5CCOCC5)ccc34)c(F)cc2Cl)nn1
viability, T/C (compound 0.0316 µM): 113% and 93.8% and 106%
viability, T/C (compound 0.1 µM): 98% and 93.7% and 97.8%
viability, T/C (compound 0.316 µM): 86.5% and 101% and 97.7%
viability, T/C (compound 1 µM): 98.4% and 104% (2×)
viability, T/C (compound 3.16 µM): 80.8% and 96.9% and 74.1%
viability, T/C (compound 10 µM): 31.1% and 61% and 30.1%
IC50 (curve of compound): 6.45 µM and > 10 µM and 5.93 µM

COc1cccc(OCCCN)c1-c1cc(Nc2cnc(C#N)cn2)n[nH]1 + Nc1ccc(C#CCN(C(=O)Cc2ncc(C(F)(F)F)cc2C(F)(F)F)c2ccc(F)cc2)nn1
IC50 (curve of first compound, second compound 0.0316 µM): < 0.00316 µM
IC50 (curve of first compound, second compound 0.1 µM): < 0.00316 µM
IC50 (curve of first compound, second compound 0.316 µM): < 0.00316 µM
IC50 (curve of first compound, second compound 1 µM): < 0.00316 µM
IC50 (curve of first compound, second compound 3.16 µM): < 0.00316 µM
IC50 (curve of first compound, second compound 10 µM): < 0.00316 µM
viability, T/C (second compound 0.0316 µM, first compound 0.00316 µM): 47%
viability, T/C (second compound 0.0316 µM, first compound 0.01 µM): 13.1%
viability, T/C (second compound 0.0316 µM, first compound 0.0316 µM): 10.3%
viability, T/C (second compound 0.0316 µM, first compound 0.1 µM): 9.69%
viability, T/C (second compound 0.0316 µM, first compound 0.316 µM): 9.94%
viability, T/C (second compound 0.0316 µM, first compound 1 µM): 10.9%
viability, T/C (second compound 0.1 µM, first compound 0.00316 µM): 38.6%
viability, T/C (second compound 0.1 µM, first compound 0.01 µM): 13.4%
viability, T/C (second compound 0.1 µM, first compound 0.0316 µM): 9.59%
viability, T/C (second compound 0.1 µM, first compound 0.1 µM): 9.13%
viability, T/C (second compound 0.1 µM, first compound 0.316 µM): 8.61%
viability, T/C (second compound 0.1 µM, first compound 1 µM): 9.39%
viability, T/C (second compound 0.316 µM, first compound 0.00316 µM): 37.4%
viability, T/C (second compound 0.316 µM, first compound 0.01 µM): 13.8%
viability, T/C (second compound 0.316 µM, first compound 0.0316 µM): 9.62%
viability, T/C (second compound 0.316 µM, first compound 0.1 µM): 8.58%
viability, T/C (second compound 0.316 µM, first compound 0.316 µM): 10.1%
viability, T/C (second compound 0.316 µM, first compound 1 µM): 9.81%
viability, T/C (second compound 1 µM, first compound 0.00316 µM): 37.2%
viability, T/C (second compound 1 µM, first compound 0.01 µM): 11.3%
viability, T/C (second compound 1 µM, first compound 0.0316 µM): 9.81%
viability, T/C (second compound 1 µM, first compound 0.1 µM): 8.9%
viability, T/C (second compound 1 µM, first compound 0.316 µM): 10.1%
viability, T/C (second compound 1 µM, first compound 1 µM): 9.12%
viability, T/C (second compound 3.16 µM, first compound 0.00316 µM): 27.5%
viability, T/C (second compound 3.16 µM, first compound 0.01 µM): 10.3%
viability, T/C (second compound 3.16 µM, first compound 0.0316 µM): 9.29%
viability, T/C (second compound 3.16 µM, first compound 0.1 µM): 8.63%
viability, T/C (second compound 3.16 µM, first compound 0.316 µM): 10.8%
viability, T/C (second compound 3.16 µM, first compound 1 µM): 10.4%
viability, T/C (second compound 10 µM, first compound 0.00316 µM): 17.6%
viability, T/C (second compound 10 µM, first compound 0.01 µM): 8.38%
viability, T/C (second compound 10 µM, first compound 0.0316 µM): 9.28%
viability, T/C (second compound 10 µM, first compound 0.1 µM): 8.09%
viability, T/C (second compound 10 µM, first compound 0.316 µM): 9.97%
viability, T/C (second compound 10 µM, first compound 1 µM): 9.55%

COc1cccc(OCCCN)c1-c1cc(Nc2cnc(C#N)cn2)n[nH]1
viability, T/C (compound 0.01 µM): 5.26% and 13.4% and 12.2%
viability, T/C (compound 0.0316 µM): 4.75% and 10.6% and 9.65%
viability, T/C (compound 0.1 µM): 4.55% and 9.76% and 10.4%
viability, T/C (compound 0.316 µM): 4.05% and 9.54% and 9.26%
viability, T/C (compound 1 µM): 5.58% and 9.9% and 9.33%
IC50 (curve of compound): < 0.00316 µM
